Some test systems named below: SNB-75; Hs-578T; OVCAR-3; ACHN; HL-60; MDA-MB-435; SK-MEL-5; SF-268; SW-620; MDA-N; MDA-MB-231; MCF7; SK-OV-3; SK-MEL-2; NCI-H522; RPMI-8226; DU-145; T47D; U-251; PC-3.
Holding throughout (experiment): NCI-60 cell line screen, 48 h

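Five concentrations, 48 hours, 96-well plates. GI50 is the concentration that inhibits growth by half.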 Activity calls are given as the source filed them. No stated cut-off is given here; in the data, active = GI50 up to about 1.1 µM and inactive = higher.

This is an account of results in ChEMBL document CHEMBL1201862, “PubChem BioAssay data set” (2004).

For `CC12CCC3c4ccc(O)cc4CCC3C1C/C(=N\O)C2O` (stereo not given), the GI50 is 36.8 µM (inactive) with SNB-75; 99.1 µM (inactive) in the experiment with Hs-578T; > 100 µM (inactive) with OVCAR-3; > 100 µM (inactive) with ACHN; 92.9 µM (inactive) in the experiment with HL-60; > 100 µM (inactive) in the experiment on MDA-MB-435. The GI50 in the experiment on SK-MEL-5, in the experiment with SF-268, with SW-620, in the experiment on MDA-N, in the experiment on MDA-MB-231 and in the experiment with MCF7 was > 100 µM (inactive) throughout. Moreover, the GI50 with SK-OV-3 is > 100 µM (inactive); with SK-MEL-2, > 100 µM (inactive); with NCI-H522 it was > 100 µM (inactive); in the experiment with RPMI-8226, 85.1 µM (inactive); in the experiment with DU-145, > 100 µM (inactive); in the experiment on T47D, > 100 µM (inactive). In addition, the GI50 in the experiment on U-251 and in the experiment with PC-3 was > 100 µM (inactive) in each case.
In the case of `Cn1c(=S)c2nc(SCc3cccnc3)[nH]c2n(C)c1=O`, the GI50 was 96.8 µM (inactive) in the experiment with SNB-75; 92 µM (inactive) in the experiment on Hs-578T; > 100 µM (inactive) in the experiment with OVCAR-3; > 100 µM (inactive) in the experiment with ACHN; > 100 µM (inactive) with HL-60; > 100 µM (inactive) in the experiment on MDA-MB-435. In addition, the GI50 in the experiment with SK-MEL-5, in the experiment with SF-268, in the experiment on SW-620, in the experiment with MDA-N, with MDA-MB-231 and in the experiment with MCF7 was > 100 µM (inactive) each time. Besides, the GI50 is > 100 µM (inactive) with SK-OV-3; > 100 µM (inactive) in the experiment with SK-MEL-2; 82 µM (inactive) in the experiment on NCI-H522; > 100 µM (inactive) in the experiment on RPMI-8226; > 100 µM (inactive) with DU-145; > 100 µM (inactive) in the experiment on T47D. Further, the GI50 in the experiment on U-251 and in the experiment on PC-3 was > 100 µM (inactive) in each case.
Consider `O=C(COC(=O)c1ccccc1)c1ccc(Br)cc1`, for which the GI50 in the experiment on SNB-75 is 16.4 µM (inactive); in the experiment with Hs-578T, 14.3 µM (inactive); in the experiment on OVCAR-3, 12.9 µM (inactive); in the experiment on ACHN, 19.9 µM (inactive); in the experiment on HL-60, 6.64 µM (inactive); with MDA-MB-435, 6.78 µM (inactive). In addition, the GI50 in the experiment with SK-MEL-5 was 14.5 µM (inactive); with SF-268, 19.6 µM (inactive); in the experiment with SW-620, 6 µM (inactive); in the experiment on MDA-N, 4.71 µM (inactive); in the experiment with MDA-MB-231, 14.3 µM (inactive); in the experiment with MCF7 it was 5.53 µM (inactive). The GI50 is 19.1 µM (inactive) in the experiment with SK-OV-3; 12.2 µM (inactive) in the experiment with SK-MEL-2; 1.63 µM (inactive) in the experiment with NCI-H522; 3.39 µM (inactive) with RPMI-8226; 19.5 µM (inactive) in the experiment on DU-145; 9.06 µM (inactive) in the experiment on T47D. The values for the GI50 in the experiment on U-251 and in the experiment with PC-3 were 11 µM (inactive) and 16.3 µM (inactive), respectively.
On to `OC(COc1cccc2ccccc12)CN1CCOCC1` (stereo not given), for which the GI50 with SNB-75 was > 100 µM (inactive); in the experiment with Hs-578T, 75.5 µM (inactive); in the experiment on OVCAR-3, > 100 µM (inactive); in the experiment with ACHN, > 100 µM (inactive); in the experiment on HL-60, > 100 µM (inactive); in the experiment on MDA-MB-435 it was > 100 µM (inactive). For the same compound, the GI50 in the experiment with SK-MEL-5, in the experiment with SF-268, in the experiment on SW-620, with MDA-N, with MDA-MB-231 and in the experiment with MCF7 was > 100 µM (inactive) each time. Besides, the GI50 in the experiment on SK-OV-3 is > 100 µM (inactive); in the experiment with SK-MEL-2, > 100 µM (inactive); in the experiment with NCI-H522 it was 54 µM (inactive); in the experiment with RPMI-8226, > 100 µM (inactive); in the experiment with DU-145 it was > 100 µM (inactive); in the experiment with T47D, > 100 µM (inactive). In addition, the GI50 with U-251 and in the experiment with PC-3 was > 100 µM (inactive) each time.
For `CN(C)c1ccc(/C=C/C(=O)CC(=O)/C=C/c2ccc(N(C)C)cc2)cc1`, the GI50 in the experiment with SNB-75 is > 100 µM (inactive); in the experiment on Hs-578T, > 100 µM (inactive); in the experiment on OVCAR-3 it was 65.3 µM (inactive); in the experiment on ACHN it was > 100 µM (inactive); with HL-60 it was > 100 µM (inactive); in the experiment with MDA-MB-435, > 100 µM (inactive). Also, the GI50 in the experiment with SK-MEL-5 is > 100 µM (inactive); in the experiment on SF-268, > 100 µM (inactive); with SW-620 it was > 100 µM (inactive); in the experiment on MDA-N, 83.2 µM (inactive); in the experiment on MDA-MB-231 it was 85.1 µM (inactive); in the experiment on MCF7, > 100 µM (inactive). Also, the GI50 in the experiment with SK-OV-3, in the experiment on SK-MEL-2, in the experiment with NCI-H522, in the experiment on RPMI-8226, with DU-145 and in the experiment with T47D was > 100 µM (inactive) each time. For the same compound, the GI50 with U-251 and with PC-3 was > 100 µM (inactive) in each case.
As to `O=C1c2ccccc2C(=O)c2sc(Nc3ccccc3C(F)(F)F)nc21`, the GI50 in the experiment on SNB-75 is 15.1 µM (inactive); in the experiment with Hs-578T, 11.9 µM (inactive); in the experiment with OVCAR-3, 7.33 µM (inactive); in the experiment on ACHN it was 16.6 µM (inactive); in the experiment on HL-60, 3.74 µM (inactive); in the experiment with MDA-MB-435 it was 4.82 µM (inactive). For the same compound, the GI50 is 8.05 µM (inactive) in the experiment with SK-MEL-5; 11 µM (inactive) with SF-268; 6.1 µM (inactive) in the experiment on SW-620; 12.5 µM (inactive) in the experiment on MDA-N; 0.264 µM (active) in the experiment with MDA-MB-231; 16.4 µM (inactive) with MCF7. Besides, the GI50 in the experiment on SK-OV-3 is 16.7 µM (inactive); with SK-MEL-2 it was 11.6 µM (inactive); in the experiment with NCI-H522 it was 8.15 µM (inactive); in the experiment on RPMI-8226, 13 µM (inactive); in the experiment on DU-145 it was 16.9 µM (inactive); in the experiment on T47D, 12 µM (inactive). Also, the figures for the GI50 in the experiment on U-251 and in the experiment with PC-3 were 10.6 µM (inactive) and 12.2 µM (inactive), respectively.
With `O=C(O)c1cc2c(s1)C(=O)c1sccc1C2=O`, the GI50 in the experiment on SNB-75 was 1.82 µM (inactive); in the experiment on Hs-578T, 2.49 µM (inactive); with OVCAR-3, 4.81 µM (inactive); in the experiment on ACHN, 8.43 µM (inactive); with HL-60, 4.18 µM (inactive); with MDA-MB-435 it was 0.774 µM (active). The GI50 was 1.82 µM (inactive) with SK-MEL-5; 5.24 µM (inactive) in the experiment with SF-268; 2.31 µM (inactive) in the experiment with SW-620; 0.769 µM (active) in the experiment with MDA-N; 9.73 µM (inactive) in the experiment on MDA-MB-231; 2.8 µM (inactive) in the experiment on MCF7. In addition, the GI50 with SK-OV-3 is 20.6 µM (inactive); in the experiment on SK-MEL-2, 2.23 µM (inactive); with NCI-H522, 3.54 µM (inactive); in the experiment with RPMI-8226, 12.7 µM (inactive); in the experiment on DU-145, 2.33 µM (inactive); in the experiment on T47D it was 4.97 µM (inactive). Moreover, the GI50 with U-251 is 5.02 µM (inactive); with PC-3, 9.82 µM (inactive).
